From publication PMC2748668 (Pharmacological research : the official journal of the …, 2009)
Where two headings read alike, the source gives them in different places.

Columns and labels:
human OATP1B1 [1] = target: T1, human OATP1B1 (Homo sapiens, UniProt Q9Y6L6); assay: cell-based
T1 sequence (Q9Y6L6 1-691): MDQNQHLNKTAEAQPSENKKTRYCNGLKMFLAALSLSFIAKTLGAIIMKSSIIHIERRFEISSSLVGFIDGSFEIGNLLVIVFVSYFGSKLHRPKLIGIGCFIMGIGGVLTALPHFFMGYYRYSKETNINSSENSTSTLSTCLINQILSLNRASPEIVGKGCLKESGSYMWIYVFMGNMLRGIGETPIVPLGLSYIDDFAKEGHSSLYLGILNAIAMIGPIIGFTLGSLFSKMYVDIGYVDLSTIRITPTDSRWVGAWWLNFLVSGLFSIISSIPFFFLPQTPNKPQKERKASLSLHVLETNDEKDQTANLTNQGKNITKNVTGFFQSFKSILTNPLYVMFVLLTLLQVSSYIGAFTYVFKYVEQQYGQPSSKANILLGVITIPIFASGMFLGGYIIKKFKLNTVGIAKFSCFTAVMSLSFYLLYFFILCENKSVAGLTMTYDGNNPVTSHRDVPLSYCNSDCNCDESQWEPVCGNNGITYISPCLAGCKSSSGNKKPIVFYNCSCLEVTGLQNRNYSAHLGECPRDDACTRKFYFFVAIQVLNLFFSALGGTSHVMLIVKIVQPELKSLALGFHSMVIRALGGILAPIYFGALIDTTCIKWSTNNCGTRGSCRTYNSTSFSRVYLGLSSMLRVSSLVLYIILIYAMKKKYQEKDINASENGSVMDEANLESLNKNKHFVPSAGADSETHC

human OATP1B1 [2] = target: T1, human OATP1B1
human OATP1B1 [3] = target: T1, human OATP1B1; assay: Inhibition kinetic studies
OATP1B1 = conditions: estrone-3-sulfate as substrate of OATP1B1; cited from earlier work
Oatp1a5 = conditions: estrone-3-sulfate as substrate of Oatp1a5; cited from earlier work

Row | Compound | Ki (human OATP1B1 [1]) | other results
1 | NC(Cc1cc(I)c(Oc2cc(I)c(O)c(I)c2)c(I)c1)C(=O)O (centres unmarked) [Thyroxine] | 3.5 ± 0.7 µM | –
2 | Clc1ccccc1C(c1ccccc1)(c1ccccc1)n1ccnc1 [Clotrimazole] | 7.6 ± 1.9 µM | –
3 | CN(CCOc1ccc(C[C@H](Nc2ccccc2C(=O)c2ccccc2)C(=O)O)cc1)c1ccccn1 [GW1929] | – | Ki (human OATP1B1 [2]): 0.3 ± 0.05 µM
4 | C[C@H](CCC(=O)NCCS(=O)(=O)O)[C@H]1CC[C@H]2[C@@H]3[C@H](O)C[C@@H]4C[C@H](O)CC[C@]4(C)[C@H]3C[C@H](O)[C@]12C [Taurocholic acid] | – | Ki (human OATP1B1 [3]): 11.4 ± 3.2 µM
5 | CC(C)(Oc1ccc(CCNC(=O)c2ccc(Cl)cc2)cc1)C(=O)O [Bezafibrate] | 45.2 ± 5.9 µM | –
6 | CC#C[C@]1(O)CC[C@H]2[C@@H]3CCC4=CC(=O)CCC4=C3[C@@H](c3ccc(N(C)C)cc3)C[C@@]21C [Mifepristone] | 2.2 ± 0.3 µM | –
7 | C[C@@]12CCC[C@H]1[C@@H]1CC[C@H]3CCCC[C@]3(C)[C@H]1CC2 | 374 ± 123 µM | –
8 | C[C@]12CC[C@@H]3c4ccc(OS(=O)(=O)O)cc4CC[C@H]3[C@@H]1CCC2=O [Estrone-3-sulfate] | – | Ki (human OATP1B1 [2]): 0.2 ± 0.02 µM; Km (OATP1B1): 2.4 µM; Km (Oatp1a5): 268 µM
9 | CC[C@H](C)C(=O)O[C@H]1C[C@H](O)C=C2C=C[C@H](C)[C@H](CC[C@@H](O)C[C@@H](O)CC(=O)O)[C@H]21 [Pravastatin] | 21.8 ± 3.6 µM | –
10 | C[C@]12CC[C@@H]3c4ccc(O)cc4CC[C@H]3[C@@H]1CC[C@@H]2O[C@@H]1O[C@H](C(=O)O)[C@@H](O)[C@H](O)[C@H]1O | – | Km (human OATP1B1 [3]; Km of the model substrate given in the Ki column (footnote *), mean ± SD): 5.9 ± 1.2 µM
11 | CC(C)OC(=O)C(C)(C)Oc1ccc(C(=O)c2ccc(Cl)cc2)cc1 [Fenofibrate] | 105 ± 26.7 µM | –
12 | Cc1cccc(Nc2cc(Cl)nc(SCC(=O)O)n2)c1C [WY-14643] | 1.6 ± 0.11 µM | –
13 | C[C@H](CCC(=O)O)[C@H]1CC[C@H]2[C@@H]3[C@H](O)C[C@@H]4C[C@H](O)CC[C@]4(C)[C@H]3C[C@H](O)[C@]12C [Cholic acid] | 25 ± 3.3 µM | –
14 | CC(C)c1onc(-c2c(Cl)cccc2Cl)c1COc1ccc(/C=C/c2cccc(C(=O)O)c2)c(Cl)c1 [GW4064] | – | Ki (human OATP1B1 [2]): 32.4 ± 6.7 µM

Now from value to molecule, other results behind:

Row | Ki (human OATP1B1 [1]) | Compound | other results
15 | 29.7 ± 5.7 µM | C[C@H](CCC(=O)O)[C@H]1CC[C@H]2[C@@H]3C(=O)C[C@@H]4CC(=O)CC[C@]4(C)[C@H]3CC(=O)[C@]12C [Dehydrocholic acid] | –
16 | 22.2 ± 3.9 µM | C[C@H](CCC(=O)NCC(=O)O)[C@H]1CC[C@H]2[C@@H]3[C@H](O)C[C@@H]4C[C@H](O)CC[C@]4(C)[C@H]3C[C@H](O)[C@]12C [Glycocholic acid] | –
17 | 3.4 ± 0.5 µM | C[C@H](CCC(=O)O)[C@H]1CC[C@H]2[C@@H]3[C@H](O)C[C@@H]4C[C@H](O)CC[C@]4(C)[C@H]3CC[C@]12C [Chenodeoxycholic acid] | –
18 | 12.7 ± 1.9 µM | CC[C@H](C)C(=O)O[C@H]1C[C@@H](C)C=C2C=C[C@H](C)[C@H](CC[C@@H]3C[C@@H](O)CC(=O)O3)[C@H]21 [Mevinolin] | –
19 | 3.2 ± 0.5 µM | C[C@H](CCC(=O)O)[C@H]1CC[C@H]2[C@@H]3CC[C@@H]4C[C@H](O)CC[C@]4(C)[C@H]3C[C@H](O)[C@]12C [Deoxycholic acid] | –
20 | 1.2 ± 0.2 µM | C[C@H](CCC(=O)O)[C@H]1CC[C@H]2[C@@H]3CC[C@@H]4C[C@H](O)CC[C@]4(C)[C@H]3CC[C@]12C [Lithocholic acid] | –
21 | 3.3 ± 0.6 µM | C[C@]12CC[C@@H]3c4ccc(O)cc4CC[C@H]3[C@@H]1CC[C@@H]2O [Estradiol] | –
